From patent US7294463B2, “Method of screening for compounds that modulate activity of a regulatory sequence of the β-2 subunit of a neuronal nicotinic acetylcholine receptor” (Institut Pasteur, priority 1994, dated 2007)
Read-outs that look alike come from different tables or passages of the source.

Assays:
[1] = tested on: nuclear extracts from neuroblastomas or fibroblasts; experiment: Gel shift assay, competition against 32P labelled E-D probe; format: binding; details: excess of unlabelled competitor
From the text: FIG. 7: Gel shift experiment. Autoradiogram of the mobility shift experiment. The probe used was a ^32P labelled double stranded E-D oligonucleotide. This oligonucleotide carries only the E-Box/Dyad element, whereas the oligonucleotide S-E carries the Sp1 binding site as well as the E-Box/Dyad element. The competitor oligonucleotides were used in 10- and 100-fold molar excess, except for S-E that was used only in 100-fold molar excess.
Oligonucleotides were labeled either with Y[^32P]ATP and T4 polynucleotide kinase, or with ∝[^32P]CTP and Klenow enzyme as in Current Protocols in Molecular Biology. Nuclear extracts were prepared from ˜10^7 cells as described (Bessis et al., 1993). For binding, […] of labeled oligonucleotide was mixed with 0.5 μg of protein extract in 10 mM Hepes pH 8, 10% glycerol], 0.1 mM EDTA, 0.1 M NaCl, 2 mM DTT, 0.1 mg/ml BSA, 4 mM MgCl2, 4 mM spermidine, 1 mM PMSF, 1 μg polydldC in 20 μl. The reaction was incubated for 10 minutes on ice. The DNA-protein complexes were then analyzed on a 7% polyacrylamide gel.
To further understand the role of the E-Box in the regulation of the promoter, we investigated the protein complexes able to interact with this sequence. Gel shift assays were performed using the 33 bp sequence (nt-135 to -103, oligonucleotide E-D) as a probe. […]

[2] = tested on: neurons of the anterior thalamus; format: cell-based, mouse
Method: (§1) METHODS, Coronal slices were obtained from the thalamus of 8-12 day old mice using a Dosaka slicer in ice cold ACSF medium (125 mM NaCl/26 mM NaHCO3/25 mM Glucose/1.25 mM NaH2PO4/2.5 mM KCl 2.5/2 mM CaCl2/1 mM MgCl2 pH 7.3). Slices were maintained in the same medium for 1-8 hours. Cells in slices were visualized through a Zeiss microscope. Whole cell recordings were obtained with 2-4 MOhm hard-glass pipettes containing 150 mM CsCl/10 mM EGTA/10 mM HEPES/4 mM di-sodium ATP/4 mM MgCl2 pH adjusted to 7.3 with KOH. Five to ten sec. pulses of drug were applied rapidly to the cell through a […] pipette above the slice, fed by gravity with a solution containing 150 mM NaCl/10 mM Hepes/2.5 mM KCl/2 mM CaCl2/1 mM MgCl2. Recordings were made in the presence of CNQX (5 μM) and of the GABAA antagonist SR-95531 (10 μM). Currents were recorded with an Axopatch ID (Axon Instrument) patch amplifier, digitized on a Compaq PC and further analyzed with the PClamp program (Axon Instrument).

neurons in the MHb = experiment: Patch clamp recording of nicotine evoked currents, medial habenula (MHb); format: cell-based, mouse; details: for Agonist potency rank order: wild type
Method: as §1

[3] = tested on: β2−/− mice and their wildtype siblings
Method: METHODS, Passive avoidance test was performed as described in the text, according to Nordberg and Bergh^20 and Faiman et al^20. Nicotine (bitartrate, Sigma) was freshly dissolved in PBS. IP injection of the same volume of either nicotine or vehicle immediately followed footshock during the training trial.
Retention of an inhibitory avoidance response was assessed using the passive avoidance test, which was also chosen for its pharmacological sensitivity to nicotine administration ^19,20. This test consisted of a training trial in which the mouse was placed in a well-lighted chamber of a shuttle box, and the latency to enter the adjacent dark chamber was measured. Upon entry to the dark chamber, a mild, inescapable foot shock was delivered, and vehicle or nicotine (10 μg/kg) was injected into the mouse. Twenty-four (24) hours later, retention was assessed by measuring the latency to enter the dark chamber.

high affinity nAChR [4] = target: high affinity nAChR (Mus musculus, UniProt O70174+Q9ERK7); details: 3H-nicotine 4 nM, all brain areas of β2+/− mice
Method: (§2) Following incubation, sections were rinsed 2×2 min. in ice cold PBS and briefly rinsed in ice cold water. Slides were exposed for 60 days to Hyperfilm ^3H.

high affinity nAChR [5] = details: 3H-nicotine 4 nM, brain sections of β2−/− mice
Method: as §2

high affinity sites = details: read-out: KD of high affinity sites; equilibrium binding experiments; cited from earlier work

high affinity nAChR (Mus musculus, UniProt O70174+Q9ERK7), sequence (Q9ERK7 26-501): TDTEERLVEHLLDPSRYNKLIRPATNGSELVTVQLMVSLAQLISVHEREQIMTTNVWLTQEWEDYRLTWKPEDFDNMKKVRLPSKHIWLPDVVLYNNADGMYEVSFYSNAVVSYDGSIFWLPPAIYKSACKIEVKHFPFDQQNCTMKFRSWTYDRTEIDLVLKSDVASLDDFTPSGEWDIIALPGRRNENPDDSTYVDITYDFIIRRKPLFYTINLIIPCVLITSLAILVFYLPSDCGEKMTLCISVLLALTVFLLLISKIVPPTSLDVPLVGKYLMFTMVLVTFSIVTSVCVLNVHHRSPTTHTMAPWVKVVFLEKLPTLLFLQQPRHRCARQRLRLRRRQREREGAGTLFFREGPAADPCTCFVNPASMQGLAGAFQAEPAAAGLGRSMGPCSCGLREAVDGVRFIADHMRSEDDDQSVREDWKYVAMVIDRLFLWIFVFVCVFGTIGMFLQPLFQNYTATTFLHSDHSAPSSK
high affinity nAChR (Mus musculus, UniProt O70174+Q9ERK7), sequence (O70174 31-629): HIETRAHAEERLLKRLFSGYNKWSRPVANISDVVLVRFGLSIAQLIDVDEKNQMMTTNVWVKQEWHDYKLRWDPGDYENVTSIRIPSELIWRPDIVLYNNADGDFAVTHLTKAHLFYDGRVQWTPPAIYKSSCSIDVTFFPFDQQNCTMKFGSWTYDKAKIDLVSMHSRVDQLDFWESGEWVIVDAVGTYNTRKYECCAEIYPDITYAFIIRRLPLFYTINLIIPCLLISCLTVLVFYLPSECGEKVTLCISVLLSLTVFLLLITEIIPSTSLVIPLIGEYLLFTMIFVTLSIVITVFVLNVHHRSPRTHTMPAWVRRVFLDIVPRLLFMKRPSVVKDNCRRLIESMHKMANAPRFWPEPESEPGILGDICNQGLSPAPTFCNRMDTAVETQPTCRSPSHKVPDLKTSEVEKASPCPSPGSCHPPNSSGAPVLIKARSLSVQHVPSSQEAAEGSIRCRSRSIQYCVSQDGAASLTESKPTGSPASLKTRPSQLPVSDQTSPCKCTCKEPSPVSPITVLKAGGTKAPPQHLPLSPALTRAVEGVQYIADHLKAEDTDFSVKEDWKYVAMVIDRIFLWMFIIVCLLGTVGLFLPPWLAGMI

5′-CCTCCCCTAGTAGTTCCTCAGGTGTTCCCTAGA [Mut.E]
Competition for complexes formed with labelled E-D probe [1]: no competition

5′-TCCTCCCCTAGTAGTTCCACTTGTGTTCCCTAG [E-D]
Competition for complexes formed with labelled E-D probe [1]: fully displaced

C[N+]1(C)CCN(c2ccccc2)CC1 [DMPP]
Agonist order of the response ([2]; wild type, anterior thalamus): nicotine>DMPP>cytisine | Agonist potency rank order (neurons in the MHb; MHb): cytisine=nicotine>DMPP

O=c1cccc2n1C[C@@H]1CNC[C@H]2C1 [cytisine]
Agonist order of the response [2]: nicotine>DMPP>cytisine | Agonist potency rank order (neurons in the MHb; MHb): cytisine=nicotine>DMPP

CO[C@H]1CC=C2CCN3CCC4=C(CC(=O)OC4)[C@]23C1 [dihydro-β-erythroidine]
Effect on the nicotine evoked inward current ([2]; 1 μM antagonist, 10 μM nicotine, wild type): blocked

CN1CCCC1c1cccnc1 (stereo not shown) [nicotine]
Average inward current ([2]; 10 μM nicotine, wild type animals): 155+/−73 pA | Dose required for a reproducible response ([2]; anterior thalamic neurons): 1 µM | Agonist order of the response ([2]; wild type, anterior thalamus): nicotine>DMPP>cytisine | Response of anterior thalamic neurons to nicotine ([2]; β2−/− mice, 100% of neurons tested): completely abolished | Response of cells in the MHb to nicotine (neurons in the MHb; mutant mice): maintained | Average inward current (neurons in the MHb; wild type mice, MHb): 505+/−132 pA | Agonist potency rank order (neurons in the MHb; MHb): cytisine=nicotine>DMPP | Upward shift of retention latency curve ([3]; nicotine 10 μg/kg IP post-training, retention after 24 hours, wild type mice, p<0.01): approximately 80 sec | Effect of nicotine administration on retention ([3]; nicotine 10 μg/kg, mutant (β2−/−) mice): completely ineffective | Reduction of nicotine binding in situ (high affinity nAChR [4]): approximately 50% | Nicotine binding in situ (high affinity nAChR [5]): completely abolished | Kd (high affinity sites): ~10 nM
